Source: PubChem BioAssay (NCI)
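Five concentrations, 48 hours, 96-well plates. TGI denotes the concentration required for complete inhibition of growth.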 Where a SMILES comes first, the peptide text is derived from it.

Tests used:
Experiment in all cases: NCI tumour cell line growth inhibition, 48 h
[1] = tested on: MDA-MB-231 breast
[2] = tested on: IGROV1 ovarian
[3] = tested on: U251 CNS
[4] = tested on: RXF 393 renal
[5] = tested on: MALME-3M melanoma
[6] = tested on: T-47D breast
[7] = tested on: OVCAR-5 ovarian
[8] = tested on: SNB-75 CNS
[9] = tested on: SF-268 CNS
[10] = tested on: HL-60(TB) leukemia
[11] = tested on: SNB-19 CNS
[12] = tested on: UACC-62 melanoma
[13] = tested on: UO-31 renal
[14] = tested on: NCI-H522 lung
[15] = tested on: RPMI-8226 leukemia
[16] = tested on: TK-10 renal
[17] = tested on: MDA-MB-435
[18] = tested on: CCRF-CEM leukemia
[19] = tested on: NCI-H23 lung

SMILES	TGI [1] [µM]	TGI [2] [µM]	TGI [3] [µM]	TGI [4] [µM]	TGI [5] [µM]	TGI [6] [µM]	TGI [7] [µM]	TGI [8] [µM]	TGI [9] [µM]	TGI [10] [µM]	TGI [11] [µM]	TGI [12] [µM]	TGI [13] [µM]	TGI [14] [µM]	TGI [15] [µM]	TGI [16] [µM]	TGI [17] [µM]	TGI [18] [µM]	TGI [19] [µM]
Cc1cc(S(=O)(=O)n2ccnc2Oc2ccccc2)c(SSc2cc(Cl)c(C)cc2S(=O)(=O)n2ccnc2Oc2ccccc2)cc1Cl	> 100	> 100	> 100	> 100	> 100	> 100	> 100	> 100	> 100	> 100	> 100	> 100	> 100	> 100	> 100	> 100	> 100	–	–
CN1CCCC1=NC#N	> 100	> 100	> 100	> 100	> 100	> 100	> 100	> 100	> 100	> 100	> 100	> 100	> 100	> 100	> 100	> 100	> 100	> 100	> 100
Cn1c(=O)c2c(nc(N)n2C2OC(CO)C(O)C2O)n(C)c1=O (configuration not stated)	> 100	> 100	> 100	> 100	> 100	> 100	> 100	> 100	> 100	> 100	> 100	> 100	> 100	> 100	> 100	> 100	> 100	> 100	> 100
CCOC(=O)CCC(NC(=O)c1ccc(Nc2nc3ccccc3n3cccc23)cc1)C(=O)OCC (configuration not stated)	48.4	> 100	62.3	32.8	> 100	1.99	> 100	53.6	> 100	> 100	> 100	53.6	> 100	60	> 100	64.7	> 100	> 100	> 100
COc1cc(Br)cc2nc(-c3cccs3)oc12	> 100	> 100	> 100	> 100	> 100	> 100	> 100	> 85.9	> 100	> 100	> 100	> 100	> 100	> 100	> 100	> 77.6	> 100	> 100	> 100
CC1(c2nc3ccccc3[nH]2)CCC(C(N)=O)C(C)(C)O1 (configuration not stated)	> 100	> 100	> 100	> 100	> 100	> 100	> 100	> 100	> 100	> 100	> 100	> 100	> 100	> 100	> 100	> 100	> 100	> 100	> 100
C/C=C/C(C#N)(Cc1ccccc1)OP1(=O)OC(c2ccccc2)C(C)N1C (configuration not stated)	> 100	> 100	> 100	> 100	> 100	> 100	> 100	> 100	> 100	41.9	> 100	> 100	> 100	> 100	> 100	> 100	> 100	41.2	> 100
c1ccc(N=c2sc3ccccc3sc2=Nc2ccccc2)cc1	3.67	3.08	3.3	3.49	3.57	3.56	3.83	11.5	10.2	> 100	16.7	2.66	2.93	2.95	> 100	12.9	3.99	> 100	3.82
CC(C)(C)CC(C)(C)N=C(N)NO	> 100	> 100	> 100	> 100	> 100	> 100	> 100	> 100	> 100	> 100	> 100	> 100	> 80.2	> 100	> 100	> 100	> 100	> 100	> 100
CC[N+]1(C)CCC(O)(c2ccccc2)C(C(=O)c2ccccc2)C1 (configuration not stated)	42.7	38.6	43.2	26.6	32.6	39.7	35.5	24.3	59.8	15.9	24.5	38.6	33.6	3.29	6.37	31.4	34.2	6.89	40.8
C[C@]12CC[C@H](O)C=C1CC[C@@H]1[C@@H]2CC[C@]2(C)C(=N/O)/C(=C/c3ccncc3)C[C@@H]12	23.9	81.6	19.6	26.3	48.5	44.4	43.8	43.8	49.4	35.4	32	19.3	20.5	33.3	19.9	38.3	42.8	32.9	63.7
O=C(NCCNCCNCCNC(=O)c1cc(-c2ccccc2)nc2ccccc12)c1cc(-c2ccccc2)nc2ccccc12	7.57	7.52	3.3	4.34	3.31	7.66	4.94	3.44	10.1	3.85	8.93	3.97	18	3.13	6.51	11.4	3.23	> 20.5	13.1
Cc1cc2c(cc1C)C(=O)C1(C2)Cc2c(ccc(C)c2C)C1=O (configuration not stated)	> 100	> 100	> 100	> 100	> 100	> 100	> 100	> 100	> 100	> 100	> 100	> 100	> 100	> 100	> 100	> 100	> 100	> 100	–
S=C(N/N=C(/c1ccccc1)c1ccccn1)Nc1ccc(Cl)cc1	8.27	12.9	12.4	7.87	10.6	2.89	6.2	8.84	15.5	0.543	20.7	7.65	9.37	11.5	> 25.9	8.3	10.2	2.26	22.6
CC(=O)NC(CS)C(=O)NC(CO)C(=O)NC(CO)C(=O)NC(Cc1c[nH]c2ccccc12)C(=O)N1CCCC1C(=O)NC(CO)C(=O)NC(Cc1c[nH]c2ccccc12)C(=O)NC(Cc1c[nH]cn1)C(=O)NC(CO)C(=O)NC(Cc1c[nH]c2ccccc12)C(=O)NCC(=O)NCC(=O)NC(CC(=O)O)C(=O)NC(CCC(N)=O)C(=O)NC(CCCCN)C(=O)NC(Cc1ccccc1)C(=O)NC(CCCNC(=N)N)C(=O)NC(CCCCN)C(N)=O (configuration not stated) (Ac-CSSWPSWHSWGGDQKFRK-NH2; configuration not given here)	> 25	> 25	> 25	> 25	> 25	> 25	> 25	> 25	> 25	> 25	> 25	> 25	> 25	> 25	> 25	> 25	> 25	> 25	> 25
CCO/C=N/C1=C(C#N)C(c2ccc(Cl)cc2)c2c(-c3ccccc3)nn(-c3ccccc3)c2O1 (configuration not stated)	> 67	45.2	16.8	28.6	30	> 100	> 70.1	29.1	29.9	> 100	24.7	33.5	31.9	18.2	> 100	14.2	35.8	> 100	24.5
CC1=C(C#N)C2C(=C(N)Oc3ccccc32)C(N)=N1 (configuration not stated)	66.6	76.7	> 100	> 100	35.5	78.2	91.6	64.1	67.4	> 100	56.3	48.4	41.2	36.2	77.3	47.5	> 100	> 100	–
CCCN(CCC)c1cc2c(cc1F)c(=O)c(C(=O)O)cn2-c1ccc(N2CCN(C)CC2)cn1	27.1	27.6	> 100	33.1	27.9	38.8	41.3	28.3	30.7	26.1	31.5	39.6	32.2	24.9	40.4	23.1	38.9	36.7	35
NC1=CN(Cc2ccccc2)C2=N/C(=C\c3ccccc3)C(=O)N12	> 100	> 100	> 100	> 100	> 100	> 100	> 100	> 100	> 100	> 100	> 100	> 100	> 100	> 100	> 100	> 100	> 100	> 100	> 100
COC(=O)[C@]12CCC(C)(C)C[C@H]1C1=CC[C@@H]3[C@@]4(C)CC[C@H](OC5OC(CO)C(O)C(O)C5OC5OC(CO)C(O)C(O)C5O)C(C)(C)[C@@H]4CC[C@@]3(C)[C@]1(C)CC2 (some centres not stated)	7.2	28.7	26.3	19.7	25.2	36.3	30.5	26.4	31.2	19.4	29.6	23.9	10.9	8.71	48.3	–	20.8	33.8	19.6
COc1ccc(N2C(=O)c3cccnc3S2(=O)=O)cc1	> 100	> 100	> 100	> 100	> 100	> 100	> 100	> 100	> 100	> 100	> 100	> 100	> 100	> 100	> 100	–	> 100	> 100	> 100
COC(=O)[C@@H]1C2OC(C)(C)OC2CN1C(=O)OCc1ccccc1 (some centres not stated)	> 100	> 100	> 100	> 100	> 100	> 100	> 100	> 100	> 100	> 100	> 100	> 100	> 100	> 100	> 100	> 100	> 100	–	> 100
CCN(CC)CCn1c2cc3c(cc2c(=O)c2cccnc21)OCO3	> 10	> 10	> 10	> 10	> 10	> 10	> 10	> 10	> 10	> 10	> 10	> 10	–	> 10	> 10	> 10	> 10	> 10	> 10
CC(C)Oc1ccc(CNC2=NCCO2)c2ccccc12	28.9	27.9	32.1	28.3	28	31.3	24.3	34.7	45.7	23.6	23	30.6	18.2	–	28.3	30.2	24.2	30.4	30.2
